Test results reported in DBAASP.
Converted amounts (≈) assume the structure as drawn. “And” between values parts separate entries of the source, which are not always exact repeats. Equal values may be shown once. Each block holds one molecule with its values, some of them ahead of it.

Key:
Assay in all cases: ≥ marks a high value that may be exact or a test limit, other limits are often not marked, values filed in µg/mL are converted to µM
[1] = tested on: Staphylococcus aureus KCCM 40510
[2] = tested on: Salmonella typhimurium KCTC 1926
[3] = tested on: Enterococcus faecium KCCM 12118
[4] = tested on: Enterococcus faecalis ATCC 51575
[5] = tested on: Bacillus subtilis KCTC 3068
[6] = tested on: Enterococcus faecalis KCCM 29212
[7] = tested on: Escherichia coli KCTC 1682
[8] = tested on: Pseudomonas aeruginosa KCTC 1637
[9] = tested on: Staphylococcus epidermidis KCTC 1917
[10] = tested on: Staphylococcus aureus KCTC 1621
[11] = tested on: Enterococcus faecium ATCC 51559
[12] = tested on: Staphylococcus epidermidis ATCC 12228
[13] = tested on: Staphylococcus aureus ATCC 29213
Micrococcus luteus A270 = tested on: Micrococcus luteus A270
Escherichia coli D31 = tested on: Escherichia coli D31
[14] = tested on: Salmonella enterica subsp. arizonae ATCC 13314
[15] = tested on: Pseudomonas aeruginosa ATCC 27853
[16] = tested on: Escherichia coli DH5alpha
Ralstonia solanacearum = tested on: Ralstonia solanacearum
Bacillus thuringiensis = tested on: Bacillus thuringiensis
Pseudomonas tolaasii = tested on: Pseudomonas tolaasii
Escherichia coli = tested on: Escherichia coli
Escherichia coli 1057 = tested on: Escherichia coli 1057
[17] = tested on: Enterococcus faecalis ATCC 29212
Escherichia coli 214 = tested on: Escherichia coli 214
Escherichia coli C600 = tested on: Escherichia coli C600
[18] = tested on: Escherichia coli BL21(DE3)
Pseudomonas aeruginosa = tested on: Pseudomonas aeruginosa
Pseudomonas aeruginosa 1 = tested on: Pseudomonas aeruginosa 1
Escherichia coli 1 = tested on: Escherichia coli 1
[19] = tested on: Staphylococcus aureus ATCC 9144
[20] = tested on: Staphylococcus aureus E4049
[21] = tested on: Staphylococcus aureus 5118
Staphylococcus sciuri = tested on: Staphylococcus sciuri
[22] = tested on: Microsporum canis MW768151
Staphylococcus simulans = tested on: Staphylococcus simulans
[23] = tested on: Staphylococcus pseudintermedius MW767056
Microsporum canis = tested on: Microsporum canis
[24] = tested on: Staphylococcus pseudintermedius
[25] = tested on: Staphylococcus haemolyticus
[26] = tested on: Escherichia coli NCTC 10418
[27] = tested on: Trichophyton mentagrophytes
[28] = tested on: Staphylococcus aureus NCTC 10788
[29] = tested on: Staphylococcus cohnii MW767053
Proteus mirabilis = tested on: Proteus mirabilis
Staphylococcus aureus = tested on: Staphylococcus aureus
[30] = tested on: Staphylococcus aureus ATCC 43300
[31] = tested on: Staphylococcus aureus NCTC 12493

MIC (Ralstonia solanacearum): 1.05 µM (≈ 2.1 µg/mL)
MIC (Bacillus thuringiensis): 1.46 µM (≈ 2.9 µg/mL)
MIC (Pseudomonas tolaasii): 1.36 µM (≈ 2.7 µg/mL)
MIC (Escherichia coli): 0.402 µM (≈ 0.8 µg/mL)
SMILES: CC[C@H](C)[C@H](NC(=O)[C@H](CCCCN)NC(=O)CNC(=O)[C@H](CC(C)C)NC(=O)[C@@H](NC(=O)[C@H](CCCCN)NC(=O)[C@H](CCCCN)NC(=O)[C@H](CC(C)C)NC(=O)[C@H](CC(N)=O)NC(=O)[C@@H](N)CC(C)C)[C@@H](C)CC)C(=O)NCC(=O)N[C@H](C(=O)N[C@@H](CCSC)C(=O)N[C@@H](CC(C)C)C(=O)N[C@@H](CO)C(=O)N[C@@H](Cc1cnc[nH]1)C(=O)N[C@@H](CC(C)C)C(=O)N[C@@H](CC(N)=O)C(=O)O)C(C)C [LNLKKILGKIGVMLSHLN]

MIC [19]: 15.9 µM (≈ 35 µg/mL)
MIC [20]: ≥ 250 µM
MIC [21]: 1.81 µM (≈ 4 µg/mL)
SMILES: CC[C@H](C)[C@H](NC(=O)[C@H](CC(C)C)NC(=O)CNC(=O)[C@H](CCSC)NC(=O)[C@@H](NC(=O)[C@H](CC(C)C)NC(=O)[C@H](CCC(N)=O)NC(=O)CNC(=O)[C@H](Cc1ccccc1)NC(=O)[C@@H](NC(=O)[C@@H](N)CO)C(C)C)C(C)C)C(=O)N[C@@H](CC(C)C)C(=O)N[C@@H](CO)C(=O)N[C@@H](CO)C(=O)N[C@H](C(=O)N[C@@H](Cc1ccccc1)C(=O)N[C@@H](Cc1ccc(O)cc1)C(=O)N[C@@H](CC(N)=O)C(=O)N[C@@H](CC(=O)O)C(=O)N[C@@H](CC(=O)O)C(=O)O)C(C)C [SVFGQLVMGLILSSVFYNDD]

Second part, the molecule before the results:

SMILES: CC[C@H](C)[C@H](NC(=O)[C@H](CCCN=C(N)N)NC(=O)[C@H](CC(C)C)NC(=O)[C@@H](N)CC(C)C)C(=O)N[C@@H](C)C(=O)N[C@@H](CC(C)C)C(=O)N[C@@H](CCCN=C(N)N)C(=O)N[C@@H](CCCCN)C(=O)N[C@@H](CCCCN)C(N)=O [LLRIALRKK]
MIC [1]: 14.4 µM (≈ 16 µg/mL)
MIC [2]: 7.2 µM (≈ 7.99 µg/mL)
MIC [3]: 28.8 µM (≈ 32 µg/mL)
MIC [4]: ≥ 57.6 µM
MIC [5]: 14.4 µM (≈ 16 µg/mL)
MIC [6]: 28.8 µM (≈ 32 µg/mL)
MIC [7]: 3.6 µM (≈ 4 µg/mL)
MIC [8]: 7.2 µM (≈ 7.99 µg/mL)
MIC [9]: 3.6 µM (≈ 4 µg/mL)
MIC [10]: 28.8 µM (≈ 32 µg/mL)
MIC [11]: 7.2 µM (≈ 7.99 µg/mL)

SMILES: CC[C@H](C)[C@H](NC(=O)[C@H](CCC(N)=O)NC(=O)[C@@H](NC(=O)CNC(=O)[C@@H](NC(=O)[C@H](CC(C)C)NC(=O)[C@H](CC(C)C)NC(=O)[C@H](Cc1ccccc1)NC(=O)[C@@H]1CCCN1C(=O)[C@@H](N)[C@@H](C)O)C(C)C)[C@@H](C)O)C(=O)N[C@@H](CC(=O)O)C(=O)N[C@@H](CC(C)C)C(=O)N[C@@H](CCCN=C(N)N)C(=O)O [TPFLLVGTQIDLR]
MIC [12]: 1.2 µM (≈ 1.77 µg/mL)
MIC [13]: 1.2 µM (≈ 1.77 µg/mL)
MIC (Micrococcus luteus A270): 4.7 µM (≈ 6.92 µg/mL)
MIC (Escherichia coli D31): 2.4 µM (≈ 3.53 µg/mL)
MIC [14]: 2.4 µM (≈ 3.53 µg/mL)
MIC [15]: 4.7 µM (≈ 6.92 µg/mL)
MIC [16]: 2.4 µM (≈ 3.53 µg/mL)

SMILES: CC(C)C[C@H](NC(=O)[C@H](CCCN=C(N)N)NC(=O)[C@@H](N)CCCN=C(N)N)C(=O)N[C@@H](CCCN=C(N)N)C(=O)N1CCC[C@H]1C(=O)N[C@@H](CCCN=C(N)N)C(=O)N[C@@H](CCCN=C(N)N)C(=O)N1CCC[C@H]1C(=O)N[C@@H](CCCN=C(N)N)C(=O)N[C@@H](CC(C)C)C(=O)N1CCC[C@H]1C(=O)N[C@@H](CCCN=C(N)N)C(=O)N1CCC[C@H]1C(=O)N[C@@H](CCCN=C(N)N)C(=O)N1CCC[C@H]1C(=O)N[C@@H](CCCN=C(N)N)C(=O)N1CCC[C@H]1C(=O)N[C@@H](CCCN=C(N)N)C(=O)N1CCC[C@H]1C(=O)N[C@@H](CCCN=C(N)N)C(=O)N1CCC[C@H]1C(=O)N[C@@H](CCCN=C(N)N)C(=O)O [RRLRPRRPRLPRPRPRPRPRPR]
MIC (Escherichia coli 1057): 10 µM and 8 µM
MIC [17]: > 32 µM
MIC (Escherichia coli 214): ≥ 64 µM
MIC (Escherichia coli C600): 2 µM and 4 µM
MIC [18]: 8 µM (≈ 23.2 µg/mL)

SMILES: CC[C@H](C)[C@H](NC(=O)[C@@H](NC(=O)[C@@H]1CCCN1C(=O)[C@H](CO)NC(=O)[C@@H]1CSSC[C@H](NC(=O)[C@H](CCCCN)NC(=O)[C@H](CCCCN)NC(=O)CNC(=O)CNC(=O)CNC(=O)CN)C(=O)N[C@@H](CCCCN)C(=O)N[C@@H](CCCCN)C(=O)N[C@@H](CC(C)C)C(=O)N[C@@H](Cc2ccccc2)C(=O)N[C@@H](CCCCN)C(=O)N[C@@H](CCCCN)C(=O)N1)C(C)C)C(=O)N1CCC[C@H]1C(=O)N[C@@H](CC(C)C)C(=O)N[C@@H](CC(C)C)C(=O)N[C@@H](Cc1cnc[nH]1)C(=O)N[C@@H](CC(C)C)C(=O)NCC(=O)O [GGGGKKCKKLFKKCSPVIPLLHLG]
MIC (Pseudomonas aeruginosa): 16 µM (≈ 40.1 µg/mL)
MIC (Pseudomonas aeruginosa 1): 27 µM (≈ 67.7 µg/mL)
MIC (Escherichia coli): 1.3 µM (≈ 3.26 µg/mL)
MIC (Escherichia coli 1): 2.7 µM (≈ 6.77 µg/mL)

SMILES: CC[C@H](C)[C@H](NC(=O)CNC(=O)[C@H](CO)NC(=O)[C@H](CC(C)C)NC(=O)[C@H](CC(C)C)NC(=O)CN)C(=O)N[C@@H](CC(C)C)C(=O)NCC(=O)N[C@@H](C)C(=O)NCC(=O)N[C@@H](CCCCN)C(=O)N[C@@H](CCCCN)C(=O)N[C@H](C(=O)N[C@H](C(=O)N[C@@H](Cc1ccccc1)C(N)=O)C(C)C)[C@@H](C)CC [GLLSGILGAGKKIVF]
MIC (Staphylococcus sciuri): ≥ 174 µM
MIC [22]: 0.679 µM (≈ 0.999 µg/mL)
MIC (Staphylococcus simulans): 10.9 µM (≈ 16 µg/mL)
MIC [23]: ≥ 174 µM
MIC (Microsporum canis): 1.92 µM (≈ 2.83 µg/mL)
MIC [24]: ≥ 61.5 µM
MIC [25]: ≥ 43.5 µM
MIC [26]: 7.99 µM (≈ 11.8 µg/mL)
MIC [27]: 1.36 µM (≈ 2 µg/mL)
MIC [28]: 2 µM (≈ 2.94 µg/mL)
MIC [29]: ≥ 86.9 µM
MIC (Proteus mirabilis): ≥ 43.5 µM
MIC (Staphylococcus aureus): 0.998 µM (≈ 1.47 µg/mL)
MIC [30]: 0.998 µM (≈ 1.47 µg/mL)
MIC [31]: 4 µM (≈ 5.89 µg/mL)
MIC [15]: 2 µM (≈ 2.94 µg/mL)
